One assay deals with T1, human AT1 receptor (Homo sapiens, UniProt P30556).
T1 construct: expressed in transfected cells; membranes
T1 sequence (P30556 1-359): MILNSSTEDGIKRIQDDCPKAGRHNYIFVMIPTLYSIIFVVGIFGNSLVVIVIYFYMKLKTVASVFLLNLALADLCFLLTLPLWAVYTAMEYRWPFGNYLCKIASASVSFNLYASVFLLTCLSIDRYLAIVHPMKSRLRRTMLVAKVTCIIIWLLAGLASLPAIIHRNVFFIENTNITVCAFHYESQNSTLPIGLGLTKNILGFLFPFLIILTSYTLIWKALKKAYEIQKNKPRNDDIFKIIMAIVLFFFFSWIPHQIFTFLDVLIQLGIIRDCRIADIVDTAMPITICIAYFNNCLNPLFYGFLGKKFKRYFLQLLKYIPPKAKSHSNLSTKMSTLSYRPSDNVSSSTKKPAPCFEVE
Description: AT1 radioligand binding assay (Assay 1). Particulars: displacement of [Eu]AngII, membranes of CHO-K1 cells expressing human AT1 receptor; read-out: pKi at the AT1 receptor (converted). As for the experimental part: These in vitro assays were used to assess the ability of test compounds to bind to the AT1 and the AT2 receptors.
Membrane Preparation From Cells Expressing Human AT1 or AT2 Receptors
Chinese hamster ovary (CHO-K^1) derived cell lines stably expressing the cloned human AT1 or AT2 receptors, respectively, were grown in HAM's-F12 medium supplemented with 10% fetal bovine serum, 10 μg/ml penicillin/streptomycin, and 500 μg/ml geneticin in a 5% CO2 humidified incubator at 37° C. AT2 receptor expressing cells were grown in the additional presence of 100 nM PD123,319 (AT2 antagonist). When cultures reached 80-95% confluence, the cells were washed thoroughly in PBS and lifted with 5 mM EDTA. Cells were pelleted by centrifugation and snap frozen in MeOH-dry ice and stored at −80° C. until further use.
For membrane preparation, cell pellets were resuspended in lysis buffer (25 mM Tris/HCl pH 7.5 at 4° C., 1 mM EDTA, and one tablet of Complete Protease Inhibitor Cocktail Tablets with 2 mM EDTA per 50 mL buffer (Roche cat.#1697498, Roche Molecular Biochemicals, Indianapolis, Ind.)) and homogenized using a tight-fitting Dounce glass homogenizer (10 strokes) on ice. The homogenate was centrifuged at 1000×g, the supernatant was collected and centrifuged at 20,000×g. […] Protein concentration of the membrane suspension was determined by the method described in Bradford (1976) Anal Biochem. 72:248-54. […]

The next assay has as its target T2, NEP enzyme (Homo sapiens, UniProt P08473).
T2 construct: purchased R&D Systems, Minneapolis, Minn; 1182-ZN
Nature of the assay: In vitro NEP enzyme inhibition assay (Assay 2). It is filed as biochemical. Particulars: fluorogenic peptide substrate; species of NEP (human or rat) not given; read-out: pIC50 for the NEP enzyme (converted). On the procedure: The inhibitory activities of compounds at human and rat NEP and human ACE were determined using in vitro assays as described below.
Rat NEP was prepared from the kidneys of adult Sprague Dawley rats. Whole kidneys were washed in cold PBS and brought up in ice-cold lysis buffer (1% Triton X-114, 150 mM NaCl, 50 mM Tris pH 7.5; Bordier (1981) J. Biol. Chem. 256:1604-1607) in a ratio of 5 mL of buffer for every gram of kidney. Samples were homogenized using a polytron hand held tissue grinder on ice. Homogenates were centrifuged at 1000×g in a swinging bucket rotor for 5 minutes at 3° C. The pellet was resuspended in 20 mL of ice cold lysis buffer and incubated on ice for 30 minutes. […] Protein concentrations were quantitated using a BCA detection system with BSA as a standard. […]
The assays were performed in 384-well white opaque plates at room temperature using the respective fluorogenic peptides at a concentration of 10 μM in assay buffer (50 mM Tris/HCl at 25° C., 100 mM NaCl, 0.01% Tween-20, 1 μM Zn, 0.025% BSA). […] The rat NEP enzyme preparation was used at a concentration that yielded quantitative proteolysis of 3 μM of Mca-RRL within 20 minutes at room temperature.
Assays were started by adding 25 μL of enzyme to 12.5 μL of test compound at 12 concentrations (10 μM to 20 pM). […] Plates were read on a fluorometer with excitation and emission wavelengths set to 320 nm and 405 nm, respectively. […]

T2 sequence (P08473 52-750 limits assumed): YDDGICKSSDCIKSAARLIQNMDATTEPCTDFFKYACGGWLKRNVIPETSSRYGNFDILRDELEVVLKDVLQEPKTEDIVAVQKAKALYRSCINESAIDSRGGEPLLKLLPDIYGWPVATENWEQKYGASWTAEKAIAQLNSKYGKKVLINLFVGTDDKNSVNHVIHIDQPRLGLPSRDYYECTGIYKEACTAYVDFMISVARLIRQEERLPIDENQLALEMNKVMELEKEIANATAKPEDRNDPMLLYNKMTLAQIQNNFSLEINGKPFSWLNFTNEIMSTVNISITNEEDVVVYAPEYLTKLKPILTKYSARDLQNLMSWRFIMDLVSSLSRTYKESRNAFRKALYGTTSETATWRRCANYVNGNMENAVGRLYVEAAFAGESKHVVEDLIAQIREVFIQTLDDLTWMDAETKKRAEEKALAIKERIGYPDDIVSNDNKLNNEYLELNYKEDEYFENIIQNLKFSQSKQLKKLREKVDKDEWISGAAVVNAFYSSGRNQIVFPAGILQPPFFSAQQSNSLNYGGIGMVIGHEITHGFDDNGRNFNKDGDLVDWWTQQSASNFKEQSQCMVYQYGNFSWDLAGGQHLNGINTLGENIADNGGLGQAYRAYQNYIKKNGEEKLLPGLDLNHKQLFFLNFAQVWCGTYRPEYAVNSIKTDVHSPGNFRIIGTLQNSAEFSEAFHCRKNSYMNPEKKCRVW

For `CCCc1nc2c(C)cc(C(=O)N[C@@H](CC(=O)NO)Cc3ccccc3)cc2n1Cc1ccc(-c2ccccc2C(=O)O)cc1` [Example 1, 4′-[6-((R)-1-Benzyl-2-hydroxycarbamoylethylcarbamoyl)-4-methyl-2-propylbenzoimidazol-1-ylmethyl]biphenyl-2-carboxylic Acid], the Ki on human AT1 receptor was less than 100 nM. Moreover, at NEP enzyme, the IC50 is not above 100 nM.

(Values after US8637676B2, “Dual-acting benzoimidazole antihypertensive agents” (Theravance, Inc., priority 2007, dated 2014).)
